Results as given in the CheMixHub viscosity set.

Assay: xn = mol fraction of the nth substance listed
Conditions: 101 kPa

C=CC(=O)OCC + CCOCCOCCO
viscosity [mPa·s]
Conditions | 293.15 K | 298.15 K | 303.15 K | 308.15 K | 313.15 K | 318.15 K
x2 = 0.0707 | 0.666 | 0.624 | 0.587 | 0.551 | 0.521 | 0.499
x2 = 0.1417 | 0.76 | 0.708 | 0.662 | 0.62 | 0.582 | 0.547
x2 = 0.2167 | 0.879 | 0.813 | 0.756 | 0.704 | 0.66 | 0.619
x2 = 0.2803 | 0.997 | 0.918 | 0.85 | 0.79 | 0.735 | 0.686
x2 = 0.3626 | 1.192 | 1.075 | 0.989 | 0.914 | 0.847 | 0.788
x2 = 0.4228 | 1.335 | 1.227 | 1.113 | 1.024 | 0.946 | 0.877
x2 = 0.5004 | 1.571 | 1.438 | 1.305 | 1.175 | 1.079 | 0.995
x2 = 0.5659 | 1.812 | 1.628 | 1.477 | 1.329 | 1.214 | 1.112
x2 = 0.6497 | 2.136 | 1.927 | 1.737 | 1.563 | 1.411 | 1.287
x2 = 0.7196 | 2.467 | 2.207 | 1.956 | 1.759 | 1.599 | 1.459
x2 = 0.791 | 2.845 | 2.512 | 2.233 | 1.998 | 1.797 | 1.627
x2 = 0.869 | 3.342 | 2.93 | 2.558 | 2.302 | 2.046 | 1.857
x2 = 0.9299 | 3.752 | 3.274 | 2.84 | 2.552 | 2.258 | 2.044

CC1=CCC(=C(C)C)CC1 + Fc1ccccc1
viscosity [mPa·s]
Conditions | x1 = 0.062 | x1 = 0.1294 | x1 = 0.2031 | x1 = 0.2839 | x1 = 0.3729 | x1 = 0.4714 | x1 = 0.5811 | x1 = 0.704 | x1 = 0.8425
303.15 K | 0.563 | 0.61 | 0.661 | 0.715 | 0.771 | 0.824 | 0.87 | 0.912 | 0.951
308.15 K | 0.53 | 0.572 | 0.621 | 0.672 | 0.725 | 0.774 | 0.818 | 0.855 | 0.889
313.15 K | 0.498 | 0.536 | 0.582 | 0.631 | 0.681 | 0.727 | 0.767 | 0.8 | 0.831

COC(C)(C)C + C1CCCCC1
303.15 K
Conditions | viscosity [mPa·s]
x1 = 0.132 | 0.693
x1 = 0.2612 | 0.609
x1 = 0.3989 | 0.536
x1 = 0.5216 | 0.485
x1 = 0.5654 | 0.466
x1 = 0.7149 | 0.42
x1 = 0.8393 | 0.384

[Cl-].[Cs+] + O
310.15 K
Conditions | viscosity [mPa·s]
x1 = 0.000182 | 0.6996
x1 = 0.000907 | 0.7002
x1 = 0.001823 | 0.7061
x1 = 0.002695 | 0.7089
x1 = 0.003679 | 0.7129
x1 = 0.005197 | 0.719
x1 = 0.005988 | 0.7223
